Several values for one entry are separate records, joined by “and”; a condition that tells them apart may be missing. Equal values may be shown once.
Assays:
[1] = test system: 4T1.2-neu (murine breast cancer cells); test: Anti-proliferative activity (Resazurin Blue, 72 hours); format: cell-based; settings: mean ± S.E.M., cisplatin basis
Protocol: (§3) MDA-1986 (human head and neck squamous cell carcinoma), 4T1.2-neu (murine breast cancer cells), and A2058 (human melanoma) cells were maintained in Dulbecco's Modified Eagle Medium (DMEM, Corning, Manassas, Va.) with 4.5 g/L glucose, 4.5 g/L L-glutamine, and 10% fetal bovine serum in a humidified incubator at 37° C. and 5% CO2. Cells were seeded into 96-well plates (3,000 cells/well in 90 μL media) and allowed to attach overnight. […] Resazurin Blue (Acros Organics, Geel, Belgium) in PBS was added to each well (5-μM final concentration; 10-μL addition) and incubated at 37° C. for 4 hours. Fluorescence (λex 550 nm, λem 605 nm) was quantified with a SpectraMax Gemini XS plate-reader (Molecular Devices, Sunnyvale, Calif.). The relative growth of cells incubated with each compound concentration was normalized to vehicle-treated controls (100% proliferation). Data from at least three separate experiments performed in duplicate was analyzed using non-linear regression (GraphPad Prism 5.0) to generate IC50 values.

[2] = test system: A2058 (human melanoma) cells; test: as above; format: cell-based; settings: mean ± S.E.M., cisplatin basis
Protocol: as §3

[3] = test system: white blood cell DNA; test: Pt-DNA adduct quantitation in white blood cell DNA; format: in vivo, rat; settings: for Pt-DNA adduct Tmax / Pt-DNA adduct AUC: cisplatin i.v. 10 mg/kg, HA-Lys-Pt s.c. 10 mg/kg cisplatin basis; for Pt-DNA adduct AUC: 10 mg/kg
Protocol: (§1) Whole blood was centrifuged (1500×g, 5 min., 4° C., no brake). Top layer (plasma) and middle layer (white blood cells) were transferred to new tubes. Plasma was frozen (−20° C.) until analysis. […] The white blood cell pellet was washed twice with cold PBS and re-suspended in 9 mL of white blood cell buffer (10-mM Tris, pH 7.4, 2.3% NaCl, 2-mM EDTA), and 900 μL of 1.1-M NH4HCO3, 900 μL of 10% SDS, and 75 μL of 2% Proteinase K were added and incubated at 42° C. overnight. Then, 3.3 mL of 5-M NaCl was added, samples shaken vigorously, and centrifuged twice (3200×g, 5 min, 4° C.), each time discarding the pellet. DNA was pelleted with 20 mL of ice-cold 100% ethanol and centrifuged (3200×g, 5 min, 4° C.); the DNA pellet was washed twice with 75% ethanol, re-suspended in water, and quantitated. DNA was digested in 1% HNO3 (800 μL total volume) overnight at 70° C. DNA samples were diluted 1:10 in 1% HNO3 and plasma samples were diluted 1:10,000 in 1% HNO3. Diluted samples were analyzed for Pt content using ICP-MS with a calibration curve from 1-1000 ppt.

[4] = test system: MDA-1986 (human head and neck squamous cell carcinoma) cells; test: Anti-proliferative activity (Resazurin Blue, 72 hours); format: cell-based
Protocol: as §3

[5] = test system: spontaneous canine cancers; settings: dogs; cited from earlier work
[6] = test system: MDA-1986 head and neck tumors; test: Anticancer efficacy, orthotopic xenograft model of human HNSCC; format: in vivo, mouse; set-up: key to tumor response, Modified RECIST: PR=Partial Response (>30% reduction); PD=Progressive Disease (>30% tumor growth); SD=Stable Disease (neither PR nor PD criteria met)
Protocol: The MDA-1986 cells were prepared in PBS at a concentration of 2×10^7 cells/mL. Female NU/NU mice were anesthetized under 2% isoflurane in O2, and 50 μL of cell solution was injected into the oral sub-mucosa of the mice using a 27-ga needle. All procedures in the animal study were approved by the Institutional Animal Care and Use Committee of the University of Kansas. Tumor growth was monitored twice weekly by measurement with a digital caliper, and the tumor volume was calculated as 0.52×(width)^2×(length). […] The drugs were given weekly for 3 consecutive weeks.

[7] = human, in vivo; cited from earlier work
[8] = Viscosity reduction by excipients (rheometer); format: physicochemical; settings: 37° C.
Protocol: The viscosity of 29 kDa HA (60 mg/mL), 33HA-Lys (33 kDa HA with linker, 8 mg/mL on HA basis), and 33HA-Lys-Pt (41.7 mg/mL on HA basis) with increasing concentration of mannitol (0, 0.1, 0.5 and 1 M) were measured using a rheometer at 37° C.
(§2) The solutions were incubated in the dark for 20 hours using a CLAY ADAMS® Brand Nutator. After 20 hours, the pH of the solutions were adjusted to pH 6.0 using 1N NaOH. A Brookfield DVIII Ultra Programmable Rheometer was used to measure the viscosity of three 500-μL samples of each solution. Measurements were taken for each at three different RPMs, where the torque ranged from 10-100%. Values for viscosity were not recorded until at least 30 seconds after the motor was started, after the torque readings were stabilized.
as §2, with “to pH 5.0 or 6.0 using” for “to pH 6.0 using”

[9] = Viscosity reduction by excipients (rheometer); format: physicochemical; settings: sucrose 0.1, 0.5 and 1 M, 37° C.
[10] = Toxicity of HA-Lys-Pt in healthy Balb/c mice; format: in vivo, mouse
Protocol: The toxicity of HA-Lys-Pt was evaluated in healthy Balb/c mice. […] Another group of Balb/c mice was injected subcutaneously with 8.86 (N=2), 13.3 (N=2), 17.7 (N=2), 20 (N=2), 30 (N=2), and 40 mg/kg (N=1) of the 33HA-Lys-Pt. Their body weights and symptoms of toxicities were monitored twice per week for up to 2 months.

[11] = Plasma Pt quantitation; settings: cisplatin i.v. 10 mg/kg; HA-Lys-Pt s.c. 10 mg/kg cisplatin basis
Protocol: as §1

[12] = HPLC of small molecular platinum species after storage; format: physicochemical; settings: solution stored at 4° C. for 4 days
Protocol: Small molecular platinum species including cisplatin, Pt-monoaqua, and Pt-diaqua were quantified by HPLC. The mobile phase was sodium phosphate solution (10-mM, pH 3.0) at a flow rate of 0.25 mL/min on an Alltech® 250 mm×4.6 mm M/M RP8/cation column thermostated at 25° C. […] The filtrate was immediately injected into the HPLC.

[13] = Transmission electron microscopy, particle diameter; format: physicochemical; settings: TEM
Description: FIGS. 4A and 4B show the transmission electron microscopy images of HA-Lys-Pt (75 kD HA) before and after salt treatment for 2 weeks. The average diameters of HA-Lys-Pt particles ranged from 25 to 50 nm. […] Intense darkness results from the high electron density of Pt rich area. […] Reduced clustering of the salt treated nanoparticles may be due to reduced hydrophobicity due to release of Pt and availability of charged chelator groups.

[14] = test system: MDA-1986 cells that overexpress CD44; test: CD44 specificity and cellular uptake of HA-GluH-Pt; format: cell-based, human; settings: 30-μg/mL, 6 h
Protocol: CD44 specificity and cellular internalization mechanism of HA-GluH-Pt was investigated using MDA-1986 cells that overexpress CD44. Chlorpromazine was used as an endocytosis inhibitor. Cells were pretreated with 25-μM chlorpromazine or 10-μg/mL anti-CD44 1 h before the addition of 30-μg/mL HA-GluH-Pt (on platinum basis) and subsequent incubation for 6 h. Cells were trypsinized, lysed by sonication and diluted 20 fold prior to ICP-MS analysis.

[15] = Toxicity of HA-GluH-Pt in mice; format: in vivo, mouse; settings: single s.c. 20, 40, 67 and 100 mg/kg, 2 months
Protocol: The toxicity of HA-GluH-Pt was evaluated in blab/C mice. Four blab/C mice were injected subcutaneously with 20, 40, 67 and 100 mg/kg HA-GluH-Pt. The body weights of the animals were checked weekly for 2 months.

[16] = test system: head and neck squamous cell carcinoma cells, MDA-1986; test: Cytotoxicity of HA-GluH-Pt (Resazurin blue); format: cell-based, human; settings: 72 hours
Protocol: Cell growth inhibition was determined in 96-well plates using head and neck squamous cell carcinoma cells, MDA-1986. […] Plates were seeded with 3,000 cells/well in 90 uL of media (6 replicates/sample). Ten microliters of HA-GluH-Pt conjugate solutions were applied after 24 hours. Resazurin blue in 10 uL of PBS was applied to each well (final concentration 5 uM) after another 72 hours.

Compound: N.N.[Cl][Pt][Cl] [Cisplatin, cisplatin, reference compound]
- IC50 [1]: 9.4 ± 2.5 µM
- IC50 ([1]; listed as cisplatin): ~8 µM
- IC50 [2]: 6.8 ± 2.7 µM
- IC50 ([2]; listed as cisplatin): ~8 µM
- Pt-DNA adduct Tmax [3]: 1 h
- Pt-DNA adduct AUC [3]: 1466 pg Pt×h/μg DNA and 1255 pg Pt×h/μg DNA
- levels of adduct formation over the time course ([3]; i.v. 10 mg/kg, 15 minutes to 96 hours): 11-16 pg Pt/μg DNA
- IC50 ([4]; mean ± S.E.M., cisplatin basis): 8.2 ± 0.6 µM
- IC50 ([4]; mean ± S.E.M., cisplatin basis, listed as cisplatin): ~8 µM
- cure in heterogeneous oral squamous cell carcinomas [5]: 7%
- tumor response, Modified RECIST ([6]; animal #1): PR (PR=Partial Response (>30% reduction))
- tumor response, Modified RECIST ([6]; animal #2): PD (PD=Progressive Disease (>30% tumor growth))
- tumor response, Modified RECIST ([6]; animal #3): SD
- tumor response, Modified RECIST ([6]; animal #4): PR (PR=Partial Response (>30% reduction))
- tumor response, Modified RECIST ([6]; animal #5): PD (PD=Progressive Disease (>30% tumor growth))
- tumor response, Modified RECIST ([6]; animal #6): PR (PR=Partial Response (>30% reduction))
- tumor response, Modified RECIST ([6]; animal #7): PD (PD=Progressive Disease (>30% tumor growth))
- tumor response, Modified RECIST ([6]; animal #8): PD (PD=Progressive Disease (>30% tumor growth))
- rate of partial response (PR) ([6]; three weekly injections): 37.5%
- rate of progressive disease (PD) ([6]; three weekly injections): 50%

Compound: N.N.O=C([O-])C1(C(=O)[O-])CCC1.[Pt+2] [carboplatin]
- patients in whom thrombocytopenia is dose limiting [7]: 25%

Compound: HA6.4-cis-[Pt(NH3)2(Nα-Acetyl-L-lysine)] [HA6.4-lys-Pt]
- cell growth inhibition ([4]; highest dose tested (300 μM)): < 50%
- IC50 ([4]; mean ± S.E.M., cisplatin basis): > 500 µM

Compound: HA-cis-[Pt(NH3)2(N^α-Acetyl-L-Lysine)] [33HA-Lys-Pt]
- effect on viscosity ([8]; mannitol 0.1, 0.5 and 1 M): reduced the viscosity
- effect on viscosity ([8]; trehalose 0.1, 0.5 and 1 M): reduced the viscosity
- effect on viscosity [9]: reduced the viscosity
- IC50 ([4]; mean ± S.E.M., cisplatin basis, listed as HA-Lys-Pt 33 kDa): 20.7 ± 2.9 µM
- IC50 ([4]; text b180, listed as HA-Lys-Pt 33 kDa): ~40 µM
- tumor response, Modified RECIST ([6]; animal #1): PR (PR=Partial Response (>30% reduction))
- tumor response, Modified RECIST ([6]; animal #2): PR (PR=Partial Response (>30% reduction))
- tumor response, Modified RECIST ([6]; animal #3): SD
- tumor response, Modified RECIST ([6]; animal #4): PR (PR=Partial Response (>30% reduction))
- tumor response, Modified RECIST ([6]; animal #5): PR (PR=Partial Response (>30% reduction))
- tumor response, Modified RECIST ([6]; animal #6): SD
- tumor response, Modified RECIST ([6]; animal #7): PR (PR=Partial Response (>30% reduction))
- tumor response, Modified RECIST ([6]; animal #8): PR (PR=Partial Response (>30% reduction))
- rate of partial response (PR) ([6]; three weekly injections): 75%

Compound: HA-cis-[Pt(NH3)2(N^α-Acetyl-L-Lysine)] [HA-Lys-Pt]
- body weight recovery ([10]; 20 or 30 mg/kg (on cisplatin basis), weight loss began one-week post treatment): returned to pre-dose weight within another two weeks
- body weight recovery ([10]; highest dose (40 mg/kg), compared with 20 or 30 mg/kg): one additional week
- acute toxic reactions including lethargy, paralysis, and respiratory depression ([10]; single s.c. injection, any dose level): not observed
- plasma Pt Cmax [11]: 4.1±2.4 μg Pt/mL plasma
- plasma Pt Tmax [11]: 24 h
- Pt-DNA adduct Tmax [3]: 48 h
- Pt-DNA adduct AUC [3]: 5247 pg Pt×h/μg DNA
- Pt-monoaqua and Pt-diaqua detection [12]: Neither Pt-monoaqua nor Pt-diaqua was detected
- diameters of nanoparticles ([13]; after salt treatment for 2 weeks): 25-50 nm
- diameters of nanoparticles ([13]; freshly made): 25-50 nm
- weight loss ([6]; single dose of 20 mg/kg): less than 5%
- weight loss ([6]; three weekly doses of 20 mg/kg, after the last injection): more than 20%

Compound: HA-cis-[Pt(NH3)2(Nα-AcetylGluH)] [HA-GluH-Pt]
- cellular uptake in anti-CD44 antibody and chlorpromazine treated cells [14]: did not differ significantly from the non-treated control
- weight loss [15]: Less than 5%
- IC50 [16]: 623 µM

— patent US20190015518A1, “DRUG DELIVERY COMPOSITIONS AND METHODS” (priority 2016, published 2019)
